The values that follow are results of earlier work, collected in PubChem BioAssay AID1259409 (Chemical Carcinogenesis Research Information System (CCRIS), 2018).

This data set relates to rodent chemically induced tumor inhibition, incidence and multiplicity. Kind of data set: CCRIS tumor inhibitor studies. The conditions noted are these: Promoter: NONE USED.

`CCO`: the “tumour outcome (control, treated, inhibition, significance)” value (Carcinogen: AZOXYMETHANE, 25843-45-2, Dose [Inhibitor]: 33% OF TOTAL CALORIES OF DIET GIVEN CONTINUOUSLY FOR 3 WK PRIOR TO CARCINOGEN DOSE AND 10 WK DURING INDUCTION (STUDY DUR, Route [Inhibitor]: ORAL, Species: RAT, Strain/Sex: F344/MALE, Target Tissue: Type of Lesion: COLON: TUMOR, Dose [Carcinogen]: 14 MG/KG 1/WK FOR 10 WK) is given as 91%, 5%, 94%, not calculated; the “tumour outcome (control, treated, inhibition, significance)” value (Carcinogen: AZOXYMETHANE, 25843-45-2, Dose [Inhibitor]: 33% OF TOTAL CALORIES OF DIET GIVEN CONTINUOUSLY FOR 3 WK PRIOR TO CARCINOGEN DOSE AND 10 WK DURING INDUCTION (STUDY DUR, Route [Inhibitor]: ORAL, Species: RAT, Strain/Sex: F344/MALE, Target Tissue: Type of Lesion: EAR CANAL: TUMOR, Dose [Carcinogen]: 14 MG/KG 1/WK FOR 10 WK) is given as 9%, 0%, 100%, not calculated; the “tumour outcome (control, treated, inhibition, significance)” value (Carcinogen: AZOXYMETHANE, 25843-45-2, Dose [Inhibitor]: 33% OF TOTAL CALORIES OF DIET GIVEN CONTINUOUSLY FOR 3 WK PRIOR TO CARCINOGEN DOSE AND 10 WK DURING INDUCTION (STUDY DUR, Route [Inhibitor]: ORAL, Species: RAT, Strain/Sex: F344/MALE, Target Tissue: Type of Lesion: SMALL INTESTINE: TUMOR, Dose [Carcinogen]: 14 MG/KG 1/WK FOR 10 WK) was 74%, 0%, 100%, p<0.0001; the “tumour outcome (control, treated, inhibition, significance)” value (Carcinogen: ETHYL CARBAMATE, 51-79-6, Dose [Inhibitor]: 0, 12% ADMINISTERED WITH CARCINOGEN IN DRINKING WATER FOR 41 WK (STUDY DURATION: 41 WK), Route [Inhibitor]: ORAL, Species: MOUSE, Strain/Sex: C3H/MALE, Target Tissue: Type of Lesion: LIVER: HEMANGIOENDOTHELIOMA, Dose [Carcinogen]: 20 MG/KG IN DRINKING WATER FOR 41 WK) was 14%, 14%, 0%, not calculated; the “tumour outcome (control, treated, inhibition, significance)” value (Carcinogen: ETHYL CARBAMATE, 51-79-6, Dose [Inhibitor]: 0, 12% ADMINISTERED WITH CARCINOGEN IN DRINKING WATER FOR 41 WK (STUDY DURATION: 41 WK), Route [Inhibitor]: ORAL, Species: MOUSE, Strain/Sex: C3H/MALE, Target Tissue: Type of Lesion: LIVER: HEMANGIOSARCOMA, Dose [Carcinogen]: 10 MG/KG IN DRINKING WATER FOR 41 WK) is reported as 5%, 0%, 100%, not significant; the “tumour outcome (control, treated, inhibition, significance)” value (Carcinogen: ETHYL CARBAMATE, 51-79-6, Dose [Inhibitor]: 0, 12% ADMINISTERED WITH CARCINOGEN IN DRINKING WATER FOR 41 WK (STUDY DURATION: 41 WK), Route [Inhibitor]: ORAL, Species: MOUSE, Strain/Sex: C3H/MALE, Target Tissue: Type of Lesion: LIVER: HEMANGIOSARCOMA, Dose [Carcinogen]: 20 MG/KG IN DRINKING WATER FOR 41 WK) was 24%, 0%, 100%, not significant. Moreover, the “tumour outcome (control, treated, inhibition, significance)” value is listed as 57%, 24%, 58%, not significant (Carcinogen: ETHYL CARBAMATE, 51-79-6, Dose [Inhibitor]: 0, 12% ADMINISTERED WITH CARCINOGEN IN DRINKING WATER FOR 41 WK (STUDY DURATION: 41 WK), Route [Inhibitor]: ORAL, Species: MOUSE, Strain/Sex: C3H/MALE, Target Tissue: Type of Lesion: LIVER: HEPATOCELLULAR ADENOMA, Dose [Carcinogen]: 10 MG/KG IN DRINKING WATER FOR 41 WK); 48%, 57%, -19%, not significant (Carcinogen: ETHYL CARBAMATE, 51-79-6, Dose [Inhibitor]: 0, 12% ADMINISTERED WITH CARCINOGEN IN DRINKING WATER FOR 41 WK (STUDY DURATION: 41 WK), Route [Inhibitor]: ORAL, Species: MOUSE, Strain/Sex: C3H/MALE, Target Tissue: Type of Lesion: LIVER: HEPATOCELLULAR ADENOMA, Dose [Carcinogen]: 20 MG/KG IN DRINKING WATER FOR 41 WK); 5%, 0%, 100%, not significant (Carcinogen: ETHYL CARBAMATE, 51-79-6, Dose [Inhibitor]: 0, 12% ADMINISTERED WITH CARCINOGEN IN DRINKING WATER FOR 41 WK (STUDY DURATION: 41 WK), Route [Inhibitor]: ORAL, Species: MOUSE, Strain/Sex: C3H/MALE, Target Tissue: Type of Lesion: LIVER: HEPATOCELLULAR CARCINOMA, Dose [Carcinogen]: 10 MG/KG IN DRINKING WATER FOR 41 WK); 14%, 5%, 64%, not significant (Carcinogen: ETHYL CARBAMATE, 51-79-6, Dose [Inhibitor]: 0, 12% ADMINISTERED WITH CARCINOGEN IN DRINKING WATER FOR 41 WK (STUDY DURATION: 41 WK), Route [Inhibitor]: ORAL, Species: MOUSE, Strain/Sex: C3H/MALE, Target Tissue: Type of Lesion: LIVER: HEPATOCELLULAR CARCINOMA, Dose [Carcinogen]: 20 MG/KG IN DRINKING WATER FOR 41 WK); 19%, 0%, 100%, not significant (Carcinogen: ETHYL CARBAMATE, 51-79-6, Dose [Inhibitor]: 0, 12% ADMINISTERED WITH CARCINOGEN IN DRINKING WATER FOR 41 WK (STUDY DURATION: 41 WK), Route [Inhibitor]: ORAL, Species: MOUSE, Strain/Sex: C3H/MALE, Target Tissue: Type of Lesion: LUNG: ALVEOLAR ADENOMA, Dose [Carcinogen]: 10 MG/KG IN DRINKING WATER FOR 41 WK); 48%, 38%, 21%, not significant (Carcinogen: ETHYL CARBAMATE, 51-79-6, Dose [Inhibitor]: 0, 12% ADMINISTERED WITH CARCINOGEN IN DRINKING WATER FOR 41 WK (STUDY DURATION: 41 WK), Route [Inhibitor]: ORAL, Species: MOUSE, Strain/Sex: C3H/MALE, Target Tissue: Type of Lesion: LUNG: ALVEOLAR ADENOMA, Dose [Carcinogen]: 20 MG/KG IN DRINKING WATER FOR 41 WK). Moreover, the “tumour outcome (control, treated, inhibition, significance)” value by setting is: (Carcinogen: ETHYL CARBAMATE, 51-79-6, Dose [Inhibitor]: 0, 12% ADMINISTERED WITH CARCINOGEN IN DRINKING WATER FOR 41 WK (STUDY DURATION: 41 WK), Route [Inhibitor]: ORAL, Species: MOUSE, Strain/Sex: C3H/MALE, Target Tissue: Type of Lesion: LUNG: CLARA-CELL ADENOMA, Dose [Carcinogen]: 10 MG/KG IN DRINKING WATER FOR 41 WK) 52%, 24%, 54%, not significant; (Carcinogen: ETHYL CARBAMATE, 51-79-6, Dose [Inhibitor]: 0, 12% ADMINISTERED WITH CARCINOGEN IN DRINKING WATER FOR 41 WK (STUDY DURATION: 41 WK), Route [Inhibitor]: ORAL, Species: MOUSE, Strain/Sex: C3H/MALE, Target Tissue: Type of Lesion: LUNG: CLARA-CELL ADENOMA, Dose [Carcinogen]: 20 MG/KG IN DRINKING WATER FOR 41 WK) 57%, 38%, 33%, not significant; (Carcinogen: ETHYL CARBAMATE, 51-79-6, Dose [Inhibitor]: 0, 20% SIMULTANEOUSLY WITH CARCINOGEN 1/D FOR 8 WK (STUDY DURATION: 16 WK), Route [Inhibitor]: GAVAGE, Species: MOUSE, Strain/Sex: NMRI/FEMALE, Target Tissue: Type of Lesion: LUNG: ADENOMA, Dose [Carcinogen]: 18 MG/KG IN 20% ETHANOL 1/D FOR 8 WK (CONTROL GROUP ADMINISTERED CARCINOGEN IN WATER)) 65%, 76%, -17%, not significant; (Carcinogen: ETHYL CARBAMATE, 51-79-6, Dose [Inhibitor]: 0, 20% SIMULTANEOUSLY WITH CARCINOGEN 1/D FOR 8 WK (STUDY DURATION: 16 WK), Route [Inhibitor]: GAVAGE, Species: MOUSE, Strain/Sex: NMRI/FEMALE, Target Tissue: Type of Lesion: LUNG: ADENOMA, Dose [Carcinogen]: 36 MG/KG IN 20% ETHANOL 1/D FOR 8 WK (CONTROL GROUP ADMINISTERED CARCINOGEN IN WATER)) 96%, 83%, 14%, not significant; (Carcinogen: ETHYL CARBAMATE, 51-79-6, Dose [Inhibitor]: 0, 20% SIMULTANEOUSLY WITH CARCINOGEN 1/D FOR 8 WK (STUDY DURATION: 16 WK), Route [Inhibitor]: GAVAGE, Species: MOUSE, Strain/Sex: NMRI/FEMALE, Target Tissue: Type of Lesion: LUNG: ADENOMA, Dose [Carcinogen]: 90 MG/KG IN 20% ETHANOL 1/D FOR 8 WK (CONTROL GROUP ADMINISTERED CARCINOGEN IN WATER)) 100%, 100%, 0%, not significant.
